Tested on: AAV
Experiment: Serum AAV IgG, ELISA
Format: in vivo, C57BL/6 female mice
Conditions: Example 12, FIG. 24B
Experimental: Same serum samples from Example 3 were also tested for AAV IgG measured by ELISA along the same lines as IgM with the exception of goat anti-mouse IgG specific-HRP being used.

C=CC(=O)N1CCC[C@@H](n2nc(-c3ccc(Oc4ccccc4)cc3)c3c(N)ncnc32)C1 [ibrutinib]
animals converting to AAV IgG-positive by d22: 10/10

Source: patent US20190142974A1, “METHODS AND COMPOSITIONS FOR ATTENUATING ANTI-VIRAL TRANSFER VECTOR IGM RESPONSES” (Selecta Biosciences, Inc., priority 2017, published 2019)
